Measurements from patent US20050026866A1 (priority 2002, published 2005).
Read-outs that look alike come from different tables or passages of the source.

What was measured:
Type in all cases: cell-based
[1] = tested on: Bordetella attachment and invasion into human melanoma cell line Skmel-23/C22
Procedure: Bordetella pertussis was cultured for 48-72 h on Bordet-Gengou agar plates (Remel, Inc.) in a 37° C. incubator. Prior to exposure of bacteria to mammalian cells (15-30 minutes), the bacteria were loop-transferred to Luria-Bertani (LB) liquid growth medium and adjusted to a concentration of 10^9 cfu/ml (OD600=0.5). Human Skmel-23/C22 metastatic melanoma cells, normal human melanocytes, or normal human fibroblasts were inoculated into Corning 12 well tissue culture plates (2-4×10^4 cells/well) in antibiotic-free DMEM growth medium supplemented with 10% fetal bovine serum, and placed in a gassed, humidified incubator, at 37° C. After 24 h, melanoma cells were fed with 1 ml fresh medium, and 15-20 h later, Bordetella pertussis strain 536 was added as described below. Potential inhibitors of Bordetella attachment and invasion of melanoma cells were added immediately before, or up to 2 h before addition of bacteria, as noted. […] Melanoma cells were then plated onto Bordet-Gengou agar plates in serial dilutions, incubated at 37° for 4d, and Bordetella pertussis were quantitated by colony counts as ‘colony forming units’ (cfu). […]
Structural requirements on cancer cells for attachment and invasion of B. pertussis. Quantitative invasion assays were carried out with various additives to investigate structural requirements on human melanoma cells for attachment and invasion of B. pertussis. […]

[2] = tested on: human carcinomas of the breast, lung, and kidney, and melanoma; conditions: without bacteria
Excerpt: (§1) Cancer cells tested were human carcinomas of the breast, lung, and kidney, and melanoma. Toxicity of B. pertussis strain 536, but not of Tohama I, was dependent on the simultaneous addition of rich nutrient broth such as Luria-Bertani bacterial growth medium, or amino acid-rich broths such as tryptone or casamino acids. […] The principal active ingredient in these broths was the amino acid histidine. […] Of 18 amino acids tested, only histidine induced a Bordetella-mediated cytotoxic/lytic effect.

[3] = tested on: SKMel-23 human melanoma cells; conditions: L-histidine alone, no B. pertussis strain
Procedure: Skmel-23/C22 human melanoma cells were cultured 15 h with or without the addition of B. pertussis to the culture medium.
as §1

In the case of `C[C@H](O)[C@@H](O)[C@@H](O)[C@H](O)C=O` [L-fucose], the “Bordetella (cfu/well) (% Control +/− S.D.)” value ([1]; 0.2% wt/vol, added 5 min. prior to bacteria, implied target fucosylated structures) is reported as 52 ± 14 % Control.

In the case of `N[C@@H](Cc1c[nH]cn1)C(=O)O` [L-histidine], the “toxicity of histidine alone” value [2] is reported as “no toxicity”, the “melanoma cells/well (24 h post-treatment)” value [3] is reported as 1.7 ± .07 × 10^5 melanoma cells/well and the “melanoma cells/well, % untreated cultures” value ([3]; 24 h post-treatment) is reported as 106 % untreated cultures.

Arg-Gly-Asp [RGD] was tested, and the “Bordetella (cfu/well) (% Control +/− S.D.)” value ([1]; 0.8 mg/ml, added 2 h prior to bacteria, implied target Arg-Gly-Asp tripeptide sequence) was 50 ± 5 % Control.
